For 34 compounds, IC50 results are on record in US20070082880A1 (priority 2005, published 2007).

The test addresses T1, human PKCθ full length enzyme (Homo sapiens, UniProt Q04759).
T1 construct: human PKCθ full length enzyme (Panvera Catalog No. P2996); purchased Panvera P2996
The test is described as follows: PKCθ IMAP Assay. It counts as biochemical. Particulars: average value when one or more samples were tested; ATP 6 uM, PKCθ 1 nM. In a few lines:
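Full-length human PKCθ (1 nM final) with 6 uM ATP and 100 nM 5FAM-labelled peptide, 5% DMSO, 3.0 mM DTT in reaction buffer. 25 min at room temperature; IMAP bead binding 20 min, fluorescence polarization read. Compounds 2:1 serially diluted; no-ATP and no-enzyme wells as controls.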

One may read the IC50 as the concentration that gives 50% inhibition.

T1 sequence (Q04759 whole entry): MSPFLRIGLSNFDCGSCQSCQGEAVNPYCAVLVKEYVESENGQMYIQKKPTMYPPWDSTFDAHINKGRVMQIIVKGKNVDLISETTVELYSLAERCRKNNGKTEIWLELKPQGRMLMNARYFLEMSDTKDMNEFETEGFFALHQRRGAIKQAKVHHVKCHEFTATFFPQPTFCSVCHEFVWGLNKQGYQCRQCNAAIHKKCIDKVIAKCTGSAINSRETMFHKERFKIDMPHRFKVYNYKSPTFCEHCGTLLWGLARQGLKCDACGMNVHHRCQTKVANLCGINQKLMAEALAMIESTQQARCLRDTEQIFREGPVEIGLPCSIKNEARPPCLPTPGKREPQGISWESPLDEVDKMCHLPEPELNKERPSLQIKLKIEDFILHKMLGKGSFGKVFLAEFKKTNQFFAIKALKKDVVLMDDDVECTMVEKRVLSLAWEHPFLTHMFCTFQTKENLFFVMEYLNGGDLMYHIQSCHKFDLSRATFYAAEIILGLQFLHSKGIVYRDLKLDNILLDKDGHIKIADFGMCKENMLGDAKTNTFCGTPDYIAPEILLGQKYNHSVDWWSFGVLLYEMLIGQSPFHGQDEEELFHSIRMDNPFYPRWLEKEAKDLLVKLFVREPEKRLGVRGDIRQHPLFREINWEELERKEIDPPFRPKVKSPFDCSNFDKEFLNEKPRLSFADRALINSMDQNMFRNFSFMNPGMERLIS

Compound `Cc1c(Nc2c(C#N)cnc3sc(-c4cc(C=O)cc(OC(C)C)c4)cc23)ccc2[nH]ccc12` [Compound 365, 2-(3-formyl-5-isopropoxyphenyl)-4-[(4-methyl-1H-indol-5-yl)amino]thieno[2,3-b]pyridine-5-carbonitrile] returned an IC50 of 103 nM. `Cc1cc(C=O)cc(-c2cc3c(Nc4ccc5[nH]ccc5c4C)c(C#N)cnc3s2)c1` [Compound 378, 2-(3-formyl-5-methylphenyl)-4-[(4-methyl-1H-indol-5-yl)amino]thieno[2,3-b]pyridine-5-carbonitrile]: the IC50 was 98 nM. The IC50 values of the last two compounds are within 1.5-fold of each other.

As for `Cc1c(Nc2c(C#N)cnc3sc(-c4ccc(CN(C)C)cc4)cc23)ccc2[nH]ccc12` [Compound 113, 2-{4-[(dimethylamino)methyl]phenyl}-4-[(4-methyl-1H-indol-5-yl)amino]thieno[2,3-b]pyridine-5-carbonitrile], the IC50 was 14 nM. On to `Cc1c(Nc2c(C#N)cnc3sc(-c4ccccc4)c(C)c23)ccc2[nH]ccc12` [Compound 424, 3-methyl-4-[(4-methyl-1H-indol-5-yl)amino]-2-phenylthieno[2,3-b]pyridine-5-carbonitrile], for which the IC50 was 194 nM. Compared with the last compound, the IC50 is about 14-fold higher. In turn, `N#Cc1cnc2sc(/C=C/C(=O)NCCO)cc2c1Nc1ccc2[nH]ccc2c1` [Compound 289, (2E)-3-[5-cyano-4-(1H-indol-5-ylamino)thieno[2,3-b]pyridin-2-yl]-N-(2-hydroxyethyl)acrylamide] gave an IC50 of 2070 nM. In turn, `COc1ccc(-c2cc3c(Nc4ccc5[nH]ccc5c4)c(C#N)cnc3s2)cc1CN(C)C` [Compound 456, 2-{3-[(dimethylamino)methyl]-4-methoxyphenyl}-4-(1H-indol-5-ylamino)thieno[2,3-b]pyridine-5-carbonitrile] gave an IC50 of 318 nM. To `CN(C)S(=O)(=O)c1ccc(-c2cc3c(Nc4ccc5[nH]ccc5c4)c(C#N)cnc3s2)cc1` [Compound 231, 4-[5-cyano-4-(1H-indol-5-ylamino)thieno[2,3-b]pyridin-2-yl]-N,N-dimethylbenzenesulfonamide] belongs 210 nM; to “2-{3-[2-(dimethylamino)ethyl]phenyl}-4-(1H-indol-5-ylamino)thieno[2,3-b]pyridine-5-carbonitrile [Compound 112]”, 69 nM; to `Cc1c(Nc2c(C#N)cnc3sc(-c4ccc(NS(C)(=O)=O)cc4)cc23)ccc2[nH]ccc12` [Compound 361, N-(4-{5-cyano-4-[(4-methyl-1H-indol-5-yl)amino]thieno[2,3-b]pyridin-2-yl}phenyl)methanesulfonamide], 43 nM. The compound `CN(C)Cc1ccc(C#Cc2cc3c(Nc4ccc5[nH]ccc5c4)c(C#N)cnc3s2)nc1` [Compound 229, 2-({5-[(dimethylamino)methyl]pyridin-2-yl}ethynyl)-4-(1H-indol-5-ylamino) thieno[2,3-b]pyridine-5-carbonitrile] came in with an IC50 of 790 nM. Next, `Cc1c(Nc2c(C#N)cnc3sc(-c4cccc(S(=O)(=O)NCCO)c4)cc23)ccc2[nH]ccc12` [Compound 510, 3-{5-cyano-4-[(4-methyl-1H-indol-5-yl)amino]thieno[2,3-b]pyridin-2-yl}-N-(2-hydroxyethyl)benzenesulfonamide]: 17 nM; `N#Cc1cnc2sc(/C=C/C(=O)N3CCCC3)cc2c1Nc1ccc2[nH]ccc2c1` [Compound 288, 4-(1H-indol-5-ylamino)-2-[(1E)-3-oxo-3-pyrrolidin-1-ylprop-1-en-1-yl]thieno[2,3-b]pyridine-5-carbonitrile]: 130 nM; `Cc1c(Nc2c(C#N)cnc3sc(-c4cccc(C(=O)N5CCCC5)c4)cc23)ccc2[nH]ccc12` [Compound 423, 4-[(4-methyl-1H-indol-5-yl)amino]-2-[3-(pyrrolidin-1-ylcarbonyl)phenyl]thieno[2,3-b]pyridine-5-carbonitrile]: 58 nM. In the case of `Cc1c(Nc2c(C#N)cnc3sc(-c4ccncc4)cc23)ccc2[nH]ccc12` [Compound 439, 4-[(4-methyl-1H-indol-5-yl)amino]-2-pyridin-4-ylthieno[2,3-b]pyridine-5-carbonitrile], the IC50 stood at 13 nM. Compared with the last compound, the IC50 is about 4.5-fold lower. `Cc1c(Nc2c(C#N)cnc3sc(-c4cnc(N5CCCCC5)nc4)cc23)ccc2[nH]ccc12` [Compound 395, 4-[(4-methyl-1H-indol-5-yl)amino]-2-(2-piperidin-1-ylpyrimidin-5-yl)thieno[2,3-b]pyridine-5-carbonitrile] returned an IC50 of 281 nM. `Cc1c(Nc2c(C#N)cnc3sc(-c4ccccc4OCCN(C)C)cc23)ccc2[nH]ccc12` [Compound 399, 2-{2-[2-(dimethylamino)ethoxy]phenyl}-4-[(4-methyl-1H-indol-5-yl)amino]thieno[2,3-b]pyridine-5-carbonitrile] gave an IC50 of 1 nM. This IC50 lies about 280-fold lower than the previous one.

As for `Cc1c(Nc2c(C#N)cnc3sc(-c4ccccc4CNCCO)cc23)ccc2[nH]ccc12` [Compound 470, 2-(2-{[(2-hydroxyethyl)amino]methyl}phenyl)-4-[(4-methyl-1H-indol-5-yl)amino]thieno[2,3-b]pyridine-5-carbonitrile], the IC50 worked out at 57 nM. The compound `Cc1c(Nc2c(C#N)cnc3sc(C(=O)N4CCNCC4)cc23)ccc2[nH]ccc12` [Compound 265, 4-[(4-methyl-1H-indol-5-yl)amino]-2-(piperazin-1-ylcarbonyl)thieno[2,3-b]pyridine-5-carbonitrile] displayed an IC50 of 232 nM. Compared with the last compound, the IC50 is about 4.1-fold higher. As to `N#Cc1cnc2sc(C(=O)Nc3cccnc3)cc2c1Nc1ccc2[nH]ccc2c1` [Compound 251, 5-cyano-4-(1H-indol-5-ylamino)-N-pyridin-3-ylthieno[2,3-b]pyridine-2-carboxamide], inhibition was half-maximal at 1670 nM (IC50). In the case of `CCN(CC)Cc1cccc(-c2cc3c(Nc4ccc5[nH]ccc5c4)c(C#N)cnc3s2)c1` [Compound 161, 2-{3-[(diethylamino)methyl]phenyl}-4-(1H-indol-5-ylamino)thieno[2,3-b]pyridine-5-carbonitrile], the IC50 stood at 350 nM. Compared with the last compound, the IC50 is about 4.8-fold lower. As for `CN(CCO)Cc1cccc(-c2cc3c(Nc4ccc5[nH]ccc5c4)c(C#N)cnc3s2)c1` [Compound 164, 2-(3-{[(2-hydroxyethyl)(methyl)amino]methyl}phenyl)-4-(1H-indol-5-ylamino)thieno[2,3-b]pyridine-5-carbonitrile], the IC50 amounted to 88 nM. The compound `Cc1c(Nc2c(C#N)cnc3scc(C(C)C)c23)ccc2[nH]ccc12` [Compound 503, 3-isopropyl-4-[(4-methyl-1H-indol-5-yl)amino]thieno[2,3-b]pyridine-5-carbonitrile] showed an IC50 of 11 nM. `Cc1c(Nc2c(C#N)cnc3sc(C(=O)Nc4cccnc4)cc23)ccc2[nH]ccc12` [Compound 263, 5-cyano-4-[(4-methyl-1H-indol-5-yl)amino]-N-pyridin-3-ylthieno[2,3-b]pyridine-2-carboxamide] showed an IC50 of 71 nM. To `CN(C)Cc1cscc1-c1cc2c(Nc3ccc4[nH]ccc4c3)c(C#N)cnc2s1` [Compound 464, 2-{4-[(dimethylamino)methyl]-3-thienyl}-4-(1H-indol-5-ylamino)thieno[2,3-b]pyridine-5-carbonitrile] belongs 77 nM; to `Cc1c(Nc2c(C#N)cnc3sc(-c4ccccn4)cc23)ccc2[nH]ccc12` [Compound 440, 4-[(4-methyl-1H-indol-5-yl)amino]-2-pyridin-2-ylthieno[2,3-b]pyridine-5-carbonitrile], 16 nM; to `Cc1c(Nc2c(C#N)cnc3sc(-c4ccc(S(=O)(=O)N(C)CCN(C)C)cc4)cc23)ccc2[nH]ccc12` [Compound 346, 4-{5-cyano-4-[(4-methyl-1H-indol-5-yl)amino]thieno[2,3-b]pyridin-2-yl}-N-[2-(dimethylamino)ethyl]-N-methylbenzenesulfonamide], 48 nM.

In turn, `COc1ccc(C=O)cc1-c1cc2c(Nc3ccc4[nH]ccc4c3)c(C#N)cnc2s1` [Compound 202, 2-(5-formyl-2-methoxyphenyl)-4-(1H-indol-5-ylamino)thieno[2,3-b]pyridine-5-carbonitrile] displayed an IC50 of 100 nM. This IC50 is about 2.1-fold higher than that of the compound before.

Consider `Cc1c(Nc2c(C#N)cnc3sc(-c4ccc(N5CCCCC5)nc4)cc23)ccc2[nH]ccc12` [Compound 397, 4-[(4-methyl-1H-indol-5-yl)amino]-2-(6-piperidin-1-ylpyridin-3-yl)thieno[2,3-b]pyridine-5-carbonitrile], for which the IC50 amounted to 292 nM.

On to `Cc1c(Nc2c(C#N)cnc3sc(-c4ccc5[nH]ccc5c4)cc23)ccc2[nH]ccc12` [Compound 520, 2-(1H-indol-5-yl)-4-[(4-methyl-1H-indol-5-yl)amino]thieno[2,3-b]pyridine-5-carbonitrile], for which the IC50 was determined as 74 nM. In turn, `COc1ccc(/C=C/c2cc3c(Nc4ccc5[nH]ccc5c4)c(C#N)cnc3s2)cc1` [Compound 405, 4-(1H-indol-5-ylamino)-2-[(E)-2-(4-methoxyphenyl)vinyl]thieno[2,3-b]pyridine-5-carbonitrile] registered an IC50 of 477 nM.

Compound `Cc1c(Nc2c(C#N)cnc3sc(-c4ccc(N(C)C)nc4)cc23)ccc2[nH]ccc12` [Compound 391, 2-[6-(dimethylamino)pyridin-3-yl]-4-[(4-methyl-1H-indol-5-yl)amino]thieno[2,3-b]pyridine-5-carbonitrile] displayed an IC50 of 86 nM. For `Cc1c(Nc2c(C#N)cnc3sc(/C=C/C(=O)OC(C)(C)C)cc23)ccc2[nH]ccc12` [Compound 286, tert-butyl (2E)-3-{5-cyano-4-[(4-methyl-1H-indol-5-yl)amino]thieno[2,3-b]pyridin-2-yl}acrylate], the IC50 came to 314 nM. The compound `Cc1c(Nc2c(C#N)cnc3sc(-c4cccc(Br)c4)cc23)ccc2[nH]ccc12` [Compound 377, 2-(3-bromophenyl)-4-[(4-methyl-1H-indol-5-yl)amino]thieno[2,3-b]pyridine-5-carbonitrile] gave an IC50 of 141 nM. As to `Cc1c(Nc2c(C#N)cnc3sc(/C=C/CCO)cc23)ccc2[nH]ccc12` [Compound 420, 2-[(1E)-4-hydroxybut-1-en-1-yl]-4-[(4-methyl-1H-indol-5-yl)amino]thieno[2,3-b]pyridine-5-carbonitrile], the IC50 was 14 nM. Compared with the last compound, the IC50 is about 10-fold lower.
